Source: patent US6358990B1, “Method for treating Alzheimer's disease” (Boehringer Mannheim Pharmaceuticals Corp., priority 1997, dated 2002)

System: IMR32 human neuroblastoma cells
Assay: Inhibition of the formation of toxic aggregates of beta-amyloid 1-40 peptide (MTT reduction in IMR32 cells)
Type: cell-based
Description: Determination of the Inhibition of the Formation of Toxic Aggregates of Beta-Amyloid 1-40 Peptide
Beta-amyloid (1-40) peptide from Bachem UK was dissolved in 0.1% acetic acid at 2 mg/ml and further diluted to 55 ug/ml in phosphate buffered saline (Sigma P4417) containing 0.02% Tween 20 (PBS-Tween). Candidate inhibitors were dissolved in DMSO at 10 mg/ml and further diluted in PBS-Tween. For each candidate inhibitor, 45 ul of 55 ug/ml peptide solution was incubated with 5 ul of appropriately diluted inhibitor overnight at 37° C. in Linbro Titertek EIA II shallow well plates (ICN, EIA II Microplates, cat no. 76-181-04). Plates were sealed with Dynatech Labs (cat # 001-010 3501) plate sealers.
MTT (3(4,5-dimethylthiazol-2-yl)-2,5-diphenyl tetrazolium bromide—Sigma) is a metabolic dye taken up by the mitochondria of viable cells and metabolised, yielding a blue formazan crystalline product. […]
For the assessment of toxicity, IMR32 human neuroblastoma cells (ECACC, Porton Down, UK) were plated at 6×10^4 cells/cm^2 in a 96 well microtitre plate (Nunc) in a volume of 100 ul growth medium (DMEM:Hams F12 1:1) per well and incubated for 2 h (CO2 incubator, 37° C.). […] Plates were read at 590 nm and inhibition of toxicity assessed as the difference in OD reading between cells in the presence and absence of candidate inhibitors. […]

## COc1ccccc1OCCNCC(O)COc1cccc2[nH]c3ccccc3c12 (centres unmarked) [carvedilol]
50 ug/ml beta-amyloid 1-40 incubated overnight with 50 ug/ml carvedilol, cells challenged with 0 to 10 ng/ml beta-amyloid 1-40
  shift of the beta-amyloid 1-40 concentration-response curve (decrease in MTT reduction): marked shift to the right
50 ug/ml carvedilol during the aggregation step, 0.1 to 1 ng/ml of peptide on IMR32 cells
  decrease in MTT reduction: no decrease in MTT reduction was observed
